This passage reports AC50 results from US12673961B2 (Agios Pharmaceuticals, Inc., priority 2022, dated 2026).

The structures appear in SMILES notation.

One assay deals with T1, human PAH with the R408W mutation (Homo sapiens, UniProt P00439, R408W).
T1 construct: expressed in transfected cells
T1 sequence (P00439 1-452 R408W): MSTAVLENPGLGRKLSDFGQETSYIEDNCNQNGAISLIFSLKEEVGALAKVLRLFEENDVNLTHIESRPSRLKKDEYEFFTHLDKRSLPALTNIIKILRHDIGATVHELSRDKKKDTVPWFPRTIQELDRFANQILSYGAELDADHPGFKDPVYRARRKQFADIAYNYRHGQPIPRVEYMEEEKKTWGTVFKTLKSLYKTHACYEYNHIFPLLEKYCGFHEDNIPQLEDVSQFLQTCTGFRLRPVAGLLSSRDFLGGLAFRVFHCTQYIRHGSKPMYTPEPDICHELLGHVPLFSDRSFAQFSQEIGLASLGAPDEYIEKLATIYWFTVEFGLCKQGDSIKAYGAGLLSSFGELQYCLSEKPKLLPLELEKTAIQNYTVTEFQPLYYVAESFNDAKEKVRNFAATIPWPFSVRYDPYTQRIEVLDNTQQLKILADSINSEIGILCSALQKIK
As to the kind of experiment: Cell Based Phenylalanine Flux Assay.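 Note: Ten-point dose curve from 2-fold serial dilutions, run in duplicate at 0.5% DMSO final, tracer step used 20 µM sepiapterin and 800 µM labeled phenylalanine.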 Also on record: scale not given here. To be noted: A375 cells expressing R408W PAH; 24 hrs with compound, then 20 μM sepiapterin and 800 μM 13C9,15N-Phenylalanine for 4 hours; 13C-Tyrosine in media by LC-MS; average where tested multiple times.
Broadly, the AC50 is the concentration giving half of the maximal activity seen. Regarding `Cc1cccn2nc(C3c4nc[nH]c4CCN3C(=O)c3ccnn3C(F)(F)F)cc12` (centres unmarked), the AC50 entry is recorded as “E, E”.

Staying with this assay, now noted: A375 cells expressing R408W PAH; 24 hrs with compound, then 20 μM sepiapterin and 800 μM 13C9,15N-Phenylalanine for 4 hours; 13C-Tyrosine in media by LC-MS; average where tested multiple times; read-out: AC50.
As for `Cn1nc(C2CC2)nc1C(=O)N1CCc2[nH]cnc2C1c1cc2c(F)cccn2n1` (single isomer, unassigned), the AC50 lay within 1000 to 5000 nM.
Still for that read-out and setting: then `Fc1cccnc1-c1nnc(N2CCc3[nH]cnc3[C@H]2c2cc3c(C(F)(F)F)cccn3n2)o1` (single isomer, unassigned), with 1000 to 5000 nM; and `COCc1ccc2c(C(=O)N3CCc4[nH]cnc4[C@H]3c3cc4ccccn4n3)cnn2c1` (single isomer, unassigned), with 1000 to 5000 nM; and `Cc1nc([C@@H](C)O)oc1C(=O)N1CCc2[nH]cnc2[C@H]1c1cc2cccc(C)n2n1` (single isomer, unassigned), with 1000 to 5000 nM.
Regarding `Cc1cccn2nc([C@@H]3c4nc[nH]c4CCN3c3cccc(F)n3)cc12` (single isomer, unassigned), the AC50 was in the range of 1000 to 5000 nM.
Take `O=C(c1nnc(C2CC(F)(F)C2)o1)N1CCc2[nH]cnc2[C@H]1c1cc2ccccn2n1` (single isomer, unassigned): the AC50 fell in the range of 1000 to 5000 nM.
As to `COc1cccn2nc(C3c4nc[nH]c4CCN3C(=O)c3nnc(C(C)(C)O)o3)cc12` (centres unmarked), the AC50 was more than 5000 nM.
As for `Cc1ccn2nc(C3c4nc[nH]c4CCN3C(=O)c3nnc(-c4cnn(C)c4)o3)cc2c1` (single isomer, unassigned), the AC50 was more than 5000 nM.

Still in this assay, the particulars now being: A375 cells expressing human R408W PAH; 24 hrs compound incubation; 13C-Tyrosine by LC-MS; average where tested multiple times; read-out: AC50.
On to `Cn1nc(C(F)F)cc1C(=O)N1CCc2[nH]cnc2[C@H]1c1cc2c(C(F)F)cccn2n1` [Example 1372, (S)-(3-(difluoromethyl)-1-methyl-1H-pyrazol-5-yl)(4-(4-(difluoromethyl)pyrazolo [1,5-a]pyridin-2-yl)-6,7-dihydro-1H-imidazo[4,5-c]pyridin-5(4H)-yl)methanone], for which the AC50 was less than 500 nM.
Turning to `Cc1nc(C(C)(C)O)oc1C(=O)N1CCc2[nH]cnc2[C@@H]1c1cc2c(C)cccn2n1` [Example 755, (R)-(2-(2-hydroxypropan-2-yl)-4-methyloxazol-5-yl)(4-(4-methylpyrazolo[1,5-a]pyridin-2-yl)-6,7-dihydro-1H-imidazo[4,5-c]pyridin-5(4H)-yl)methanone], the AC50 is more than 5000 nM.
In the case of `Cc1nc([C@H](C)O)oc1C(=O)N1CCc2[nH]cnc2[C@@H]1c1cc2c(C)cccn2n1` [Example 751, (2-((S)-1-hydroxyethyl)-4-methyloxazol-5-yl)((R)-4-(4-methylpyrazolo[1,5-a]pyridin-2-yl)-6,7-dihydro-1H-imidazo [4,5-c]pyridin-5(4H)-yl) methanone], the AC50 is more than 5000 nM.
As to `O=C(c1ccnn1C(F)F)N1CCc2[nH]cnc2[C@@H]1c1cc2cc(C(F)(F)F)ccn2n1` [Example 1133, (R)-(1-(difluoromethyl)-1H-pyrazol-5-yl)(4-(5-(trifluoromethyl)pyrazolo [1,5-a]pyridin-2-yl)-6,7-dihydro-1H-imidazo[4,5-c]pyridin-5(4H)-yl)methanone], the AC50 lay in the range of 1000 to 5000 nM.
The same measure, in the same setting: for `Cn1nc(C(F)F)cc1C(=O)N1CCc2[nH]cnc2[C@H]1c1cc2c(Cl)cccn2n1` [Example 1368, (S)-(4-(4-chloropyrazolo [1,5-a]pyridin-2-yl)-6,7-dihydro-1H-imidazo[4,5-c]pyridin-5(4H)-yl)(3-(difluoromethyl)-1-methyl-1H-pyrazol-5-yl)methanone] the value was less than 500 nM.

Still in this assay, the particulars now being: A375 cells expressing human R408W PAH; 24 hrs with compound, then sepiapterin and 13C9,15N-Phenylalanine for 4 hours; 13C-Tyrosine by LC-MS; average where tested multiple times; read-out: AC50.
`Fc1cccn2nc([C@@H]3c4nc[nH]c4CCN3c3nnc(-c4cnccn4)o3)cc12` [Example 2159, (S)-2-(4-(4-fluoropyrazolo [1,5-a]pyridin-2-yl)-1,4,6,7-tetrahydro-5H-imidazo[4,5-c]pyridin-5-yl)-5-(pyrazin-2-yl)-1,3,4-oxadiazole]: the half-maximal activity concentration (AC50) was in the range of 500 to 1000 nM.
On to `Cc1ncccc1-c1nnc(N2CCc3[nH]cnc3[C@@H]2c2cc3c(F)cccn3n2)o1` [Example 2213, (R)-2-(4-(4-fluoropyrazolo [1,5-a]pyridin-2-yl)-1,4,6,7-tetrahydro-5H-imidazo [4,5-c]pyridin-5-yl)-5-(2-methylpyridin-3-yl)-1,3,4-oxadiazole], for which the AC50 is more than 5000 nM.
Consider `CC(F)(F)c1nnc(N2CCc3[nH]cnc3[C@@H]2c2cc3c(Cl)cccn3n2)o1` [Example 2232, (R)-2-(4-(4-chloropyrazolo [1,5-a]pyridin-2-yl)-1,4,6,7-tetrahydro-5H-imidazo [4,5-c]pyridin-5-yl)-5-(1,1-difluoroethyl)-1,3,4-oxadiazole], for which the AC50 is more than 5000 nM.
Regarding `Cc1ncccc1-c1nnc(N2CCc3[nH]cnc3[C@H]2c2cc3cccc(Cl)n3n2)o1` [Example 2330, (S)-2-(4-(7-chloropyrazolo [1,5-a]pyridin-2-yl)-1,4,6,7-tetrahydro-5H-imidazo [4,5-c]pyridin-5-yl)-5-(2-methylpyridin-3-yl)-1,3,4-oxadiazole], the AC50 was in the range of 500 to 1000 nM.
Turning to `Cn1cc(-c2nnc(C(=O)N3CCc4[nH]cnc4[C@H]3c3cc4ccc(C(F)(F)F)cn4n3)o2)cn1` [Example 2416, (S)-(5-(1-methyl-1H-pyrazol-4-yl)-1,3,4-oxadiazol-2-yl)(4-(6-(trifluoromethyl)pyrazolo[1,5-a]pyridin-2-yl)-6,7-dihydro-1H-imidazo [4,5-c]pyridin-5(4H)-yl)methanone], the AC50 is 1000 to 5000 nM.
Regarding `Cc1cccnc1-c1nnc(N2CCc3[nH]cnc3[C@@H]2c2cc3c(F)cccn3n2)o1` [Example 2281, (R)-2-(4-(4-fluoropyrazolo [1,5-a]pyridin-2-yl)-1,4,6,7-tetrahydro-5H-imidazo [4,5-c]pyridin-5-yl)-5-(3-methylpyridin-2-yl)-1,3,4-oxadiazole], the AC50 is more than 5000 nM.
Still for that read-out and setting: for `Cc1cccc2cc([C@@H]3c4nc[nH]c4CCN3C(=O)c3nnc(-c4cnn(C(F)(F)F)c4)o3)nn12` [Example 1446, (S)-(4-(7-methylpyrazolo [1,5-a]pyridin-2-yl)-6,7-dihydro-1H-imidazo[4,5-c]pyridin-5(4H)-yl)(5-(1-(trifluoromethyl)-1H-pyrazol-4-yl)-1,3,4-oxadiazol-2-yl)methanone] the value was 500 to 1000 nM; for `FC(F)c1nnc(N2CCc3[nH]cnc3[C@H]2c2cc3c(OC(F)(F)F)cccn3n2)o1` [Example 2251, (S)-2-(difluoromethyl)-5-(4-(4-(trifluoromethoxy)pyrazolo [1,5-a]pyridin-2-yl)-1,4,6,7-tetrahydro-5H-imidazo [4,5-c]pyridin-5-yl)-1,3,4-oxadiazole], less than 500 nM.
For `Fc1ccc(-c2nnc(N3CCc4[nH]cnc4[C@H]3c3cc4c(F)cccn4n3)o2)cc1` [Example 1953, (S)-2-(4-fluorophenyl)-5-(4-(4-fluoropyrazolo[1,5-a]pyridin-2-yl)-1,4,6,7-tetrahydro-5H-imidazo[4,5-c]pyridin-5-yl)-1,3,4-oxadiazole], the AC50 is less than 500 nM.
On the same count and under the same terms, for `CC(C)c1cccn2nc([C@@H]3c4nc[nH]c4CCN3C(=O)c3nnc(-c4cnn(C(F)F)c4)o3)cc12` [Example 1936, (S)-(5-(1-(difluoromethyl)-1H-pyrazol-4-yl)-1,3,4-oxadiazol-2-yl)(4-(4-isopropylpyrazolo[1,5-a]pyridin-2-yl)-1,4,6,7-tetrahydro-5H-imidazo[4,5-c]pyridin-5-yl)methanone] the value was less than 500 nM; for `CC(C)(F)c1nnc(C(=O)N2CCc3[nH]cnc3[C@H]2c2cc3c(Br)cccn3n2)o1` [Example 1938, (S)-(4-(4-bromopyrazolo [1,5-a]pyridin-2-yl)-1,4,6,7-tetrahydro-5H-imidazo [4,5-c]pyridin-5-yl)(5-(2-fluoropropan-2-yl)-1,3,4-oxadiazol-2-yl)methanone], less than 500 nM.
In the case of `O=C(c1nnc(-c2cnccn2)o1)N1CCc2[nH]cnc2[C@H]1c1cc2c(C(F)F)cccn2n1` [Example 1414, (S)-(4-(4-(difluoromethyl)pyrazolo[1,5-a]pyridin-2-yl)-6,7-dihydro-1H-imidazo [4,5-c]pyridin-5(4H)-yl)(5-(pyrazin-2-yl)-1,3,4-oxadiazol-2-yl)methanone], the AC50 is less than 500 nM.
For `O=C(c1ocnc1C1CC1)N1CCc2[nH]cnc2[C@@H]1c1cc2c(C(F)(F)F)cccn2n1` [Example 2015, (R)-(4-cyclopropyloxazol-5-yl)(4-(4-(trifluoromethyl)pyrazolo [1,5-a]pyridin-2-yl)-1,4,6,7-tetrahydro-5H-imidazo[4,5-c]pyridin-5-yl)methanone], the AC50 lay within 1000 to 5000 nM.
`O=C(c1nnc(C2CC2)o1)N1CCc2[nH]cnc2[C@H]1c1cc2ccc(F)cn2n1` [Example 2404, (S)-(5-cyclopropyl-1,3,4-oxadiazol-2-yl)(4-(6-fluoropyrazolo[1,5-a]pyridin-2-yl)-6,7-dihydro-1H-imidazo[4,5-c]pyridin-5(4H)-yl)methanone]: the AC50 lay within 1000 to 5000 nM.
For `Cc1cccc2cc([C@@H]3c4nc[nH]c4CCN3C(=O)c3nnc(-c4ccn(C(F)(F)F)n4)o3)nn12` [Example 1510, (S)-(4-(7-methylpyrazolo [1,5-a]pyridin-2-yl)-6,7-dihydro-1H-imidazo[4,5-c]pyridin-5(4H)-yl)(5-(1-(trifluoromethyl)-1H-pyrazol-3-yl)-1,3,4-oxadiazol-2-yl)methanone], the AC50 lay in the range of 500 to 1000 nM.
